Data published in publication PMC5127189 (Scientific Reports, 2016).

Tests used:
[1] = system: Pu27 (DNA, G4) TGGGGAGGGTGGGGAGGGTGGGGAAGG; assay: fluorescent intercalator displacement (FID); set-up: unit not given here; settings: thiazole orange displaced
[2] = system: HTG21 (DNA, G4) GGGTTAGGGTTAGGGTTAGGG; assay: fluorescent intercalator displacement (FID); set-up: unit not given here; settings: thiazole orange displaced
[3] = system: c-kit-2 (DNA, G4) CGGGCGGGCGCTAGGGAGGGT; assay: fluorescent intercalator displacement (FID); set-up: unit not given here; settings: thiazole orange displaced
[4] = system: c-kit-1 (DNA, G4) CGGGCGGGCACGAGGGAGGGT; assay: fluorescent intercalator displacement (FID); set-up: unit not given here; settings: thiazole orange displaced
[5] = system: Pu22 (DNA, G4) TGAGGGTGGGTAGGGTGGGTAA; assay: fluorescent intercalator displacement (FID); set-up: unit not given here; settings: thiazole orange displaced
[6] = system: ds26 (DNA, duplex) CAATCGGATCGAATTCGATCCGATTG; assay: fluorescent intercalator displacement (FID); set-up: unit not given here; settings: thiazole orange displaced
Hep-G2 cells [7] = settings: Hep-G2, 48 h; for Inhibitory rates (%): footnote a: 20 μM, footnotes b, c (salts, cisplatin) cut off
Protocol: (§1) The cytotoxic activity of the L^a–L^d and complexes 1–14 were tested against a panel of cell lines such as Hep-G2, NCI-H460, SK-OV-3, HCT-8, BEL-7402 cells, and one normal cell line, HL-7702, and cell viability was determined using the MTT assay. Cisplatin was used as the positive control.

BEL-7402 cells = assay: MTT cytotoxicity assay; assay type: cell-based, human; settings: BEL-7402, 48 h; for Inhibitory rates (%): footnote a: 20 μM, footnotes b, c (salts, cisplatin) cut off
Protocol: as §1

HCT-8 cells = assay: MTT cytotoxicity assay; assay type: cell-based, human; settings: HCT-8, 48 h; for Inhibitory rates (%): footnote a: 20 μM, footnotes b, c (salts, cisplatin) cut off
Protocol: as §1

NCI-H460 cells = assay: MTT cytotoxicity assay; assay type: cell-based, human; settings: NCI-H460, 48 h; for Inhibitory rates (%): footnote a: 20 μM, footnotes b, c (salts, cisplatin) cut off
Protocol: as §1

SK-OV-3 cells = assay: MTT cytotoxicity assay; assay type: cell-based, human; settings: SK-OV-3, 48 h; for Inhibitory rates (%): footnote a: 20 μM, footnotes b, c (salts, cisplatin) cut off
Protocol: as §1

HL-7702 cells = assay: MTT cytotoxicity assay, normal cell line; assay type: cell-based, human; settings: HL-7702, 48 h; for Inhibitory rates (%): footnote a: 20 μM, footnotes b, c (salts, cisplatin) cut off
Protocol: as §1

[8] = system: HTG21 (DNA, G4) GGGTTAGGGTTAGGGTTAGGG; assay: fluorescent intercalator displacement (FID); settings: K+ 100 mM (TBS); 10 mM Tris, pH 7.35 (TBS as defined in Table 4); thiazole orange displaced
[9] = system: ds26 (DNA, duplex) CAATCGGATCGAATTCGATCCGATTG; assay: fluorescent intercalator displacement (FID); settings: K+ 100 mM (TBS); 10 mM Tris, pH 7.35 (TBS as defined in Table 4); thiazole orange displaced
[10] = system: Pu27 (DNA, G4) TGGGGAGGGTGGGGAGGGTGGGGAAGG; assay: fluorescent intercalator displacement (FID); settings: K+ 100 mM (TBS); 10 mM Tris, pH 7.35 (TBS as defined in Table 4); thiazole orange displaced
[11] = system: c-kit-1 (DNA, G4) CGGGCGGGCACGAGGGAGGGT; assay: fluorescent intercalator displacement (FID); settings: K+ 100 mM (TBS); 10 mM Tris, pH 7.35 (TBS as defined in Table 4); thiazole orange displaced
[12] = system: Pu22 (DNA, G4) TGAGGGTGGGTAGGGTGGGTAA; assay: fluorescent intercalator displacement (FID); settings: K+ 100 mM (TBS); 10 mM Tris, pH 7.35 (TBS as defined in Table 4); thiazole orange displaced
Hep-G2 cells [13] = assay: Cellular uptake of metal by ICP-MS; assay type: cell-based, human; settings: Hep-G2, 24 h; 3 5 μM, 6 14 μM, 7 16 μM, 8 10 μM, 10 12 μM, 11 6 μM, cisplatin 10 μM
Protocol: In order to understand the uptake and distribution of cisplatin, complexes 1–6, 7, 8, 10 and 11 in Hep-G2 cells, an ICP-MS assay was performed to quantify the amount of metal (Pt, Ni or Pd) taken up by the cells.

Hep-G2 cells [14] = assay: Distribution of metal in nuclear and mitochondrial fractions (ICP-MS); assay type: cell-based, human; settings: Hep-G2, 24 h
Protocol: The distributions of metal (cisplatin, complexes 1–6, 7, 8, 10 and 11) in the nuclear fraction and mitochondrial fractions of Hep-G2 cells were studied after exposure of Hep-G2 cells to 1–6, 7, 8, 10, 11 and cisplatin for 24 h according to our previous reports. […] Taken together, their difference of metal (Pt, Ni or Pd) distribution for complexes 1–6, 7, 8, 10, 11 and cisplatin could be attributed to their differences in cytotoxicity and the apoptotic pathways in Hep-G2 cells.

[15] = system: human hepatoma (BEL-7402) xenograft; assay: In vivo antitumor activity, BEL-7402 xenograft model; set-up: species or system nude mice; settings: cisplatin, 2 mg/kg/2days ip; for Tumor Volume (end): day 18, 2 mg/kg
Protocol: Animal used, acute toxicity studies and antitumor activity toward BEL-7402 in vivo of complex 3 (16 and 8 mg/kg, two time a day,17 days (ip)), complex 6 (3.2 and 1.6 mg/kg/ day, 17 days) and cisplatin (2 mg/kg/2days), were similar to that reported by Chen[43][80]. BEL-7402 xenograft mouse models were purchased from Beijing HFK Bioscience Co., Ltd (Beijing, China, approval No. SCXK 2014-004). The animal procedures were approved by the Institute of Radiation Medicine Chinese Academy of Medical Sciences (Tian Jin, China, approval No. SYXK 2014-0002). And all of the experimental procedures were carried out in accordance with the NIH Guidelines for the Care and Use of Laboratory Animals. Animal experiments were approved by the Animal Care and Use Committee of Institute of Radiation Medicine Chinese Academy of Medical Sciences.

[16] = Body weight in the BEL-7402 xenograft study
Protocol: To investigate the efficacy of 3 to inhibit tumor growth in vivo, a mouse model of human hepatoma (BEL-7402) xenograft was used. The tumor-bearing nude mice received treatment when the tumor size was between 100 and 160 mm^3. The mice were treated with 3 at 16 and 8 mg/kg two times every day, and treatment of cisplatin with 2 mg/kg/2days as the positive control.
(1 picture or pasted object on this page, not shown here)

| Molecule | Pu27DC50 [1] | HTG21DC50 [2] | c-kit-2DC50 [3] | c-kit-1DC50 [4] | Pu22DC50 [5] | ds26DC50 [6] | Inhibitory rates (%) (Hep-G2 cells [7]) | Inhibitory rates (%) (BEL-7402 cells) | Inhibitory rates (%) (HCT-8 cells) | Inhibitory rates (%) (NCI-H460 cells) | Inhibitory rates (%) (SK-OV-3 cells) | Inhibitory rates (%) (HL-7702 cells) | further results |
| --- | --- | --- | --- | --- | --- | --- | --- | --- | --- | --- | --- | --- | --- |
| Nc1ccc2ccnc3c2c1C(=O)c1ccccc1-3.[Cl-].[Cl-].[Ni+2] | 1.31 | 3.35 | 3.61 | 9.11 | 7.63 | 37.01 |  |  |  |  |  |  |  |
| O.O.O.O.O.O.[Cl][Ni][Cl] [NiCl2·6H2O, reference compound] |  |  |  |  |  |  | 15.06 ± 1.09 | 11.28 ± 1.08 | 12.75 ± 1.09% | 10.44 ± 1.82% | 20.88 ± 0.61 | 17.03 ± 1.16% |  |
| Nc1cccc2c1C(=O)c1cccc3ccnc-2c13.[Cl-].[Cl-].[Ni+2] | 14.22 |  | 45.30 | 73.65 | 90.18 |  |  |  |  |  |  |  | HTG21DC50 [8]: 26.45; ds26DC50 [9]: 70.46 |
| Nc1cccc2c1C(=O)c1cccc3ccnc-2c13.[Cl-].[Cl-].[Pd+2] | 42.51 | 49.08 | > 100 | 78.46 | 89.64 | 90.63 |  |  |  |  |  |  |  |
| cis-Pt(DMSO)2Cl2 [reference compound] |  |  |  |  |  |  | 17.83 ± 0.57 | 10.74 ± 0.95 | no activity | no activity | 15.11 ± 1.17 | no activity |  |
| Nc1ccc2ccnc3c2c1C(=O)c1ccccc1-3.[Cl-].[Cl-].[Pd+2] | 3.88 | 3.91 | 5.01 | 18.75 | 9.09 | 21.76 |  |  |  |  |  |  |  |
| O=C1c2c(Cl)cc[c]3c2-c2c4c1cccc4cc[n+]2[Pt-2]31[NH2+]CCC[NH2+]1.[Cl-] (stereo not shown) [compound 9, [Pt(L^c)(pn)]Cl] |  |  |  |  |  |  | 58.11 ± 2.05 | 40.64 ± 0.85 | 40.89 ± 1.79% | 47.28 ± 1.07% | 36.74 ± 1.21 | 39.56 ± 1.01% | IC50 (Hep-G2 cells [7]): 15.9 ± 2.11 µM; IC50 (BEL-7402 cells): 45 ± 0.86 µM; IC50 (HCT-8 cells): 25.2 ± 1.82 µM; IC50 (NCI-H460 cells): 25.1 ± 1.09 µM; IC50 (SK-OV-3 cells): 30.4 ± 1.19 µM; IC50 (HL-7702 cells): 80 ± 1.02 µM |
| COC1c2c([c-]ccc2Cl)-c2nccc3cccc1c23.CS(C)=O.[Cl-].[Pt+2] (stereo not shown) |  | 55.16 | 79.69 |  |  | 91.48 |  |  |  |  |  |  | Pu27DC50 [10]: 33.15; c-kit-1DC50 [11]: 79.95; Pu22DC50 [12]: 74.91 |
| NCCN [en, 1,2-ethylenediamine, reference compound] |  |  |  |  |  |  | 13.64 ± 2.03 |  | 16.45 ± 1.92% | 20.58 ± 1.66% | 18.42 ± 0.98 | 15.03 ± 0.65% |  |
| N.N.[Cl][Pt][Cl] [Cisplatin, cisplatin, reference compound] |  |  |  |  |  |  | 68.71 ± 0.56 | 65.82 ± 1.11 | 56.07 ± 1.67% | 59.13 ± 1.35% | 58.06 ± 1.03 | 63.09 ± 1.35% | IC50 (Hep-G2 cells [7]): 9.65 ± 0.87 µM; IC50 (BEL-7402 cells): 12.7 ± 0.94 µM; IC50 (HCT-8 cells): 16.3 ± 1.54 µM; IC50 (NCI-H460 cells): 18.1 ± 1.26 µM; IC50 (SK-OV-3 cells): 14.1 ± 1.07 µM; IC50 (HL-7702 cells): 12.3 ± 1.19 µM; cellular accumulation of metal (Pt) (Hep-G2 cells [13]): 4.89 ± 0.43 nmol platinum/10^6 cells; distribution of metal in nuclear and mitochondrial fractions (Hep-G2 cells [14]): mainly accumulated in the mitochondrial fraction; Tumor Volume (start) [15]: 104.79 ± 32.12 mm^3; average tumor weight (mean ± SD g) [15]: 0.52 ± 0.29 g; Tumor Volume (end) [15]: 566.82 ± 331.08 mm^3; Tumor Volume (end) ([15]; listed as cisplatin): 566 mm^3; inhibition of tumor growth (%) / Inhibition Ratio ([15]; tumor weight): 75.9%; body weight loss during treatment (in words) ([16]; BEL-7402 xenograft mice): severe body weight loss; Body Weight (end) ([16]; cisplatin, 2 mg/kg/2days ip): 19.6 ± 0.9 g; Body Weight (start) ([16]; cisplatin, 2 mg/kg/2days ip): 22.5 ± 1.1 g; RBW (%) (end) ([16]; cisplatin, 2 mg/kg/2days ip): 87.11 ± 4.8% |
| CS(C)=O.O=C1c2c([c-]ccc2Cl)-c2nccc3cccc1c23.[Cl-].[Pt+2] | 60.02 | 70.83 | 87.29 | 90.02 | 99.81 | 96.11 |  |  |  |  |  |  |  |
| [Cl][Pd][Cl] [PdCl2, reference compound] |  |  |  |  |  |  | 20.14 ± 1.18 | 18.59 ± 1.77 | 15.05 ± 1.84% | 9.91 ± 1.49% | 19.02 ± 1.04 | 18.24 ± 1.33% |  |
